Assay results as given in patent US10021881B2, “Vaporized administration of pesticides” (priority 2016, dated 2018).

Tested on: Botrytis cinerea
Test: In vivo assay of vaporized pyrimethanil to inhibit Botrytis cinerea in strawberries
Conditions: for Gray Mold Severity (0-4): scale 0 no disease to 4 exceptionally high
[1] = 0.03 mg/L, Day 0 (after 3 days at 21° C.)
[2] = 0.03 mg/L, Day 1 (after 3 days at 21° C.)
[3] = 0.03 mg/L, Day 2 (after 3 days at 21° C.)
[4] = 0.03 mg/L, Day 3 (after 3 days at 21° C.)
[5] = 0.1 mg/L, Day 0 (after 3 days at 21° C.)
[6] = 0.1 mg/L, Day 1 (after 3 days at 21° C.)
[7] = 0.1 mg/L, Day 2 (after 3 days at 21° C.)
[8] = 0.1 mg/L, Day 3 (after 3 days at 21° C.)
[9] = 0.3 mg/L, Day 0 (after 3 days at 21° C.)
[10] = 0.3 mg/L, Day 1 (after 3 days at 21° C.)
[11] = 0.3 mg/L, Day 2 (after 3 days at 21° C.)
[12] = 0.3 mg/L, Day 3 (after 3 days at 21° C.)
[13] = 1 mg/L, Day 0 (after 3 days at 21° C.)
[14] = 1 mg/L, Day 1 (after 3 days at 21° C.)
[15] = 1 mg/L, Day 2 (after 3 days at 21° C.)
[16] = 1 mg/L, Day 3 (after 3 days at 21° C.)

Method: Eight strawberries (per repetition, in triplicate) were placed in an industry standard clamshell with the stem facing down. […] Clamshells were then placed at the bottom of a 36-L acrylic desiccator chamber in triplicate.
An appropriate amount of pyrimethanil to achieve a final headspace concentration of 1 mg/L, 0.3 mg/L, 0.1 mg/L, or 0.03 mg/L was dissolved in acetone and 100 μL of the solution was pipetted into a small glass tube. This tube was then placed inside a preheated vaporization device (0.5″ OD by 6″ long thermostatically heated copper tube mounted to a 0.5 L/min low flow fan) set at 60° C. for 1 minute to allow the acetone to evaporate, leaving behind the solid crystals of pyrimethanil.
Pyrimethanil was then introduced into the cabinets of the chamber through the bulkhead port by using the vaporization device as described in Example 1 set at 180° C. The chambers were then incubated at 21° C. for three (3) days. After incubation, fruits were evaluated daily for an additional 3 days at 21° C. Fruits were evaluated in order to observe percentage of disease incidence (%) and severity of disease. Disease severity was rated on a scale ranging from 0 to 4, where “0” indicated no disease severity, “1” indicated minimal disease severity, “2” indicated medium disease severity, “3” indicated high disease severity, and “4” indicated exceptionally high disease severity.

**Q.** Which “Gray Mold Incidence (%)” value [1] does the source give for `Cc1cc(C)nc(Nc2ccccc2)n1` [pyrimethanil, 4,6-Dimethyl-N-phenylpyrimidin-2-amine] here?
**A.** 79.2%

**Q.** What about the “Gray Mold Severity (0-4)” value [1] of the same compound?
**A.** 0.8

**Q.** What about the “Gray Mold Incidence (%)” value [2] of the same compound?
**A.** 87.5%

**Q.** And the “Gray Mold Severity (0-4)” value [2]?
**A.** 1.3

**Q.** What about the “Gray Mold Incidence (%)” value [3] of the same compound?
**A.** 91.7%

**Q.** And the “Gray Mold Severity (0-4)” value [3]?
**A.** 1.7

**Q.** What about the “Gray Mold Incidence (%)” value [4] of the same compound?
**A.** 100.0%

**Q.** What about the “Gray Mold Severity (0-4)” value [4] of the same compound?
**A.** 2.1

**Q.** What about the “Gray Mold Incidence (%)” value [5] of the same compound?
**A.** 70.8%

**Q.** And the “Gray Mold Severity (0-4)” value [5]?
**A.** 0.6

**Q.** What about the “Gray Mold Incidence (%)” value [6] of the same compound?
**A.** 79.2%

**Q.** And the “Gray Mold Severity (0-4)” value [6]?
**A.** 0.8

**Q.** What about the “Gray Mold Incidence (%)” value [7] of the same compound?
**A.** 83.3%

**Q.** What about the “Gray Mold Severity (0-4)” value [7] of the same compound?
**A.** 1.2

**Q.** And the “Gray Mold Incidence (%)” value [8]?
**A.** 100.0%

**Q.** What about the “Gray Mold Severity (0-4)” value [8] of the same compound?
**A.** 1.7

**Q.** What about the “Gray Mold Incidence (%)” value [9] of the same compound?
**A.** 66.7%

**Q.** And the “Gray Mold Severity (0-4)” value [9]?
**A.** 0.4

**Q.** And the “Gray Mold Incidence (%)” value [10]?
**A.** 75.0%

**Q.** What about the “Gray Mold Severity (0-4)” value [10] of the same compound?
**A.** 0.5

**Q.** And the “Gray Mold Incidence (%)” value [11]?
**A.** 73.8%

**Q.** And the “Gray Mold Severity (0-4)” value [11]?
**A.** 0.8

**Q.** And the “Gray Mold Incidence (%)” value [12]?
**A.** 95.8%

**Q.** What about the “Gray Mold Severity (0-4)” value [12] of the same compound?
**A.** 1.1

**Q.** What about the “Gray Mold Incidence (%)” value [13] of the same compound?
**A.** 66.7%

**Q.** What about the “Gray Mold Severity (0-4)” value [13] of the same compound?
**A.** 0.3

**Q.** What about the “Gray Mold Incidence (%)” value [14] of the same compound?
**A.** 70.8%

**Q.** What about the “Gray Mold Severity (0-4)” value [14] of the same compound?
**A.** 0.4

**Q.** What about the “Gray Mold Incidence (%)” value [15] of the same compound?
**A.** 69.6%

**Q.** What about the “Gray Mold Severity (0-4)” value [15] of the same compound?
**A.** 0.6

**Q.** And the “Gray Mold Incidence (%)” value [16]?
**A.** 91.7%

**Q.** And the “Gray Mold Severity (0-4)” value [16]?
**A.** 1.0
